Some test systems named below: U251 CNS; RXF 393 renal; MALME-3M melanoma; COLO 205 colon; A549 NSCLC; SK-MEL-2 melanoma; RPMI-8226 leukemia; NCI-H522 lung; CAKI-1 renal; SK-MEL-5 melanoma.
Holding throughout (test): NCI anticancer screen, dose series, 48 h

Each structure is given as a SMILES string.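 Briefly, cells in 96-well plates were exposed to five compound concentrations for 48 h, and endpoints were estimated by linear interpolation. GI50 marks 50% less growth. The concentration for full growth arrest is given as TGI.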 A value given as a limit tells only on which side of the number the result lay.

With `COc1cc(OC)cc(N(CCNC(C)C)c2ccc3ncc(-c4cnn(C)c4)nc3c2)c1`, the GI50 in the experiment on U251 CNS is 4.32 µM; with RXF 393 renal it was 1.2 µM; with MALME-3M melanoma it was 6.48 µM; in the experiment on COLO 205 colon, 4.64 µM; in the experiment with A549 NSCLC it was 5.33 µM; in the experiment on SK-MEL-2 melanoma, 7.31 µM. Besides, the GI50 is 7.3 µM with RPMI-8226 leukemia, 7.82 µM in the experiment with NCI-H522 lung and 2.8 µM in the experiment with CAKI-1 renal. In addition, the TGI is 19.6 µM with U251 CNS; 5.16 µM with RXF 393 renal; 21.5 µM in the experiment on MALME-3M melanoma; 18.5 µM with COLO 205 colon; 19.1 µM in the experiment with A549 NSCLC; 25 µM with SK-MEL-2 melanoma. Also, the TGI was 33.1 µM in the experiment with RPMI-8226 leukemia, 23.4 µM in the experiment with NCI-H522 lung and 13.3 µM in the experiment on CAKI-1 renal.
For `CCOC(=O)N1CCN(c2nc(Nc3cc(C)[nH]n3)c3ccccc3n2)CC1`, the GI50 is 7.94 µM in the experiment with SK-MEL-5 melanoma; 2.13 µM in the experiment on U251 CNS; 1.11 µM in the experiment on RXF 393 renal; 21.9 µM in the experiment on MALME-3M melanoma; 1.83 µM with COLO 205 colon; 7.6 µM with A549 NSCLC. Further, the GI50 with SK-MEL-2 melanoma was 0.737 µM; with RPMI-8226 leukemia it was 3.4 µM; in the experiment with NCI-H522 lung it was 2.82 µM; with CAKI-1 renal, 0.97 µM. Also, the TGI stood at 21.4 µM in the experiment with SK-MEL-5 melanoma; 23.5 µM in the experiment on U251 CNS; 5.01 µM in the experiment on RXF 393 renal; 62.2 µM with MALME-3M melanoma; 5.41 µM with COLO 205 colon; 28.8 µM with A549 NSCLC. Besides, the TGI amounted to 55.5 µM with SK-MEL-2 melanoma, 13.6 µM with RPMI-8226 leukemia, 30.7 µM with NCI-H522 lung and 17.8 µM in the experiment on CAKI-1 renal.
With `COc1cc(/C=C2\C(=O)Nc3cc(C)c(O)cc32)cc(OC)c1OC`, the GI50 in the experiment with SK-MEL-5 melanoma is 2.52 µM; in the experiment on U251 CNS, 3.54 µM; with RXF 393 renal, 3.46 µM; in the experiment with MALME-3M melanoma, 0.454 µM; in the experiment with COLO 205 colon it was 6.09 µM; in the experiment with A549 NSCLC it was 6.13 µM. Further, the GI50 is 2.97 µM in the experiment on SK-MEL-2 melanoma, 1.47 µM with RPMI-8226 leukemia, 2.59 µM in the experiment on NCI-H522 lung and 2.98 µM in the experiment on CAKI-1 renal. The TGI in the experiment on SK-MEL-5 melanoma was 9.17 µM; with U251 CNS, 16.1 µM; with RXF 393 renal, 13.4 µM; in the experiment with MALME-3M melanoma it was 9.11 µM; in the experiment with COLO 205 colon it was 22.8 µM; in the experiment on A549 NSCLC, above 79.6 µM. Moreover, the TGI in the experiment with SK-MEL-2 melanoma was determined as 14.5 µM; in the experiment on RPMI-8226 leukemia it was 4.41 µM; in the experiment on NCI-H522 lung it was 12.1 µM; in the experiment with CAKI-1 renal it was 9.66 µM.
As for `Cc1cc(=O)oc2cc(OC(=O)N(C)C)c(Cl)cc12`, the TGI in the experiment on SK-MEL-5 melanoma was above 100 µM; with U251 CNS, above 100 µM; in the experiment with RXF 393 renal it was 41.5 µM; in the experiment on MALME-3M melanoma it was above 100 µM; in the experiment with COLO 205 colon, above 100 µM; in the experiment on A549 NSCLC, above 100 µM. The TGI in the experiment with SK-MEL-2 melanoma, with RPMI-8226 leukemia, in the experiment with NCI-H522 lung and with CAKI-1 renal was above 100 µM throughout.
For `COc1ccc(-c2cc(=O)c3ccc(C)nc3[nH]2)cc1`, the GI50 is 48 µM in the experiment with SK-MEL-5 melanoma and above 100 µM in the experiment with U251 CNS. Moreover, the TGI in the experiment with SK-MEL-5 melanoma, in the experiment with U251 CNS, in the experiment on RXF 393 renal, with MALME-3M melanoma, with COLO 205 colon and with A549 NSCLC was above 100 µM each time. In addition, the TGI in the experiment with SK-MEL-2 melanoma, in the experiment on RPMI-8226 leukemia, in the experiment with NCI-H522 lung and in the experiment with CAKI-1 renal was above 100 µM each time.
Regarding `CC(=O)O[C@H]1CC[C@@]2(C)C(=CC[C@H]3[C@@H]4CC[C@H](c5cc(C(F)(F)F)n(C(C)=O)n5)[C@@]4(C)CC[C@@H]32)C1`, the TGI in the experiment with SK-MEL-5 melanoma was 15.3 µM; with U251 CNS it was 16.5 µM; with RXF 393 renal, 17.8 µM; in the experiment on MALME-3M melanoma, above 52.8 µM; with COLO 205 colon, 14.5 µM; with A549 NSCLC it was 20.5 µM. Also, the TGI in the experiment on SK-MEL-2 melanoma was 20.8 µM; in the experiment with RPMI-8226 leukemia it was 17.9 µM; in the experiment on NCI-H522 lung it was above 38.5 µM; in the experiment with CAKI-1 renal it was 24.5 µM.
For the molecule `COc1cc(C#Cc2ccc(=O)oc2C#Cc2ccccc2)cc(OC)c1OC`, the GI50 with SK-MEL-5 melanoma was 2.02 µM; in the experiment on U251 CNS it was 1.9 µM; in the experiment with RXF 393 renal, 2.21 µM; with MALME-3M melanoma it was 2.99 µM; with A549 NSCLC, 10.3 µM; in the experiment with SK-MEL-2 melanoma it was 5.69 µM. Also, the GI50 is 2.33 µM with RPMI-8226 leukemia, 1.73 µM in the experiment with NCI-H522 lung and 2.12 µM with CAKI-1 renal. Besides, the TGI in the experiment on SK-MEL-5 melanoma amounted to 4.77 µM; in the experiment with U251 CNS, 3.6 µM; in the experiment on RXF 393 renal, 4.34 µM; in the experiment on MALME-3M melanoma it was 7.21 µM; with A549 NSCLC, 43.9 µM; in the experiment with SK-MEL-2 melanoma, 12.7 µM. In addition, the TGI in the experiment with RPMI-8226 leukemia is 17.7 µM; in the experiment on NCI-H522 lung it was 3.57 µM; with CAKI-1 renal, 4.26 µM.
For the molecule `CCOC(=O)C1N(S(=O)(=O)c2ccc(C)cc2)CCC12c1ccccc1N(C(C)=O)C2c1ccc(OC)c(OC)c1` (stereo unspecified), the TGI with SK-MEL-5 melanoma, in the experiment with U251 CNS, with RXF 393 renal, in the experiment with MALME-3M melanoma, in the experiment with COLO 205 colon and in the experiment on A549 NSCLC was above 100 µM each time. Besides, the TGI in the experiment with RPMI-8226 leukemia, in the experiment on NCI-H522 lung and in the experiment on CAKI-1 renal was above 100 µM in each case.
Take `Cc1ccc(NC(=O)C2C(=O)N(c3ccc(C)cc3)C(=O)/C2=N\NC(N)=S)cc1` (stereo unspecified): the TGI in the experiment on SK-MEL-5 melanoma, in the experiment with U251 CNS, in the experiment with RXF 393 renal, in the experiment on MALME-3M melanoma, in the experiment with COLO 205 colon and in the experiment with SK-MEL-2 melanoma was above 100 µM in each case. The TGI in the experiment with RPMI-8226 leukemia, with NCI-H522 lung and with CAKI-1 renal was above 100 µM in each case.

These data come from PubChem BioAssay (NCI).
